Blank lines part the entries; values can stand above or below the molecule they belong to. Calls of active or inactive are those of the source. The calls are words filed in the database; no cut-off is given here.
Experiments:
[1] = (§1) Prodrug activation in phosphate buffer saline at pH 7.4 assessed as Escherichia coli nitroreductase mediated 3-fluoro-10-hydroxy-14-methyl-8,13,13b,14-tetrahydroindolo[2',3':3,4]pyrido[2,1-b]quinazolin-5(7H)-one formation by measuring fluorescence emission intensity at 25 uM incubated for 2 hrs in presence of NADH by fluorescence spectrophotometric analysis; conditions: isolated protein, pH 7.4, 2 h
[2] = Drug localization in lysosome of human HCT-116 cells at 25 uM incubated for 2 hrs by Lyso-tracker red dye based confocal imaging analysis; assay type: ADME, subcellular; conditions: hct-116, 2 h
[3] = Drug localization in endoplasmic reticulum of human HCT-116 cells at 25 uM incubated for 2 hrs by ER-tracker red dye based confocal imaging analysis; assay type: ADME, subcellular; conditions: hct-116, 2 h
HCT-116 [4] = assay: Antitumor activity against human HCT-116 cells xenografted in male nude mouse assessed as tumor growth inhibition at 10 mg/kg, ip administered twice daily for 14 consecutive days; assay type: functional; conditions: read-out: TGI
[5] = Drug uptake in male nude mouse kidney xenografted in human HCT-116 cells at 10 mg/kg, […] administered via tail vein and measured at 12 hrs post injection by fluorescence imaging analysis; assay type: ADME, organism-based; conditions: in vivo
A549 [6] = assay: Induction of cell cycle arrest in human A549 cells assessed as accumulation of cells at G2/M phase at 0.04 uM measured after 24 hrs by flow cytometric analysis relative to control; assay type: functional
A549 [7] = assay: Binding affinity to NTR in human A549 cells assessed as increase in fluorescence intensity at 10 to 100 uM incubated for 2 hrs by confocal fluorescence microscopic analysis; assay type: cell-based; conditions: dose 10-100 µM
HCT-116 [8] = assay: Cytotoxicity against human HCT-116 cells assessed as inhibition of cell growth incubated for 72 hrs under normoxic conditions by CCK-8 assay; assay type: functional, cell-based; conditions: HCT-116, 72 h
[9] = Drug localization in Mitochondria of human HCT-116 cells at 25 uM incubated for 2 hrs by Mito-tracker green dye based confocal imaging analysis; assay type: ADME; conditions: hct-116, 2 h
[10] = as §1, with “incubated for 0.5 to 2 hrs” for “incubated for 2 hrs”, “presence of 1 to 7 microg/ml NTR and NADH by” for “presence of NADH by”; conditions: isolated protein, pH 7.4, 25 µM, time 0.5-2 hrs
HCT-116 [11] = assay: Induction of cell cycle arrest in human HCT-116 cells assessed as accumulation of cells at S phase at 0.04 uM measured after 24 hrs by flow cytometric analysis (reference value: 33.15 %); assay type: functional
A549 [12] = assay: Induction of apoptosis in human A549 cells assessed as apoptotic cells at 0.04 to 1.0 uM measured after 48 hrs by flow cytometric analysis (reference value: 6.44%); assay type: functional; conditions: dose 0.04-1 µM
A549 [13] = assay: Cytotoxicity against human A549 cells assessed as inhibition of cell growth incubated for 72 hrs under normoxic conditions by CCK-8 assay; assay type: functional, cell-based; conditions: A549, 72 h
HCT-116 [14] = assay: Induction of apoptosis in human HCT-116 cells assessed as apoptotic cells at 0.04 to 1.0 uM measured after 48 hrs by flow cytometric analysis (reference value: 4.57%); assay type: functional; conditions: dose 0.04-1 µM
HCT-116 [15] = assay: Induction of cell cycle arrest in human HCT-116 cells assessed as accumulation of cells at G1 phase at 0.04 uM measured after 24 hrs by flow cytometric analysis (reference value: 48.40 %); assay type: functional
HUVEC = assay: Binding affinity to NTR in human HUVEC cells assessed as fluorescence intensity at 10 to 100 uM incubated for 2 hrs by confocal fluorescence microscopic analysis; assay type: cell-based; conditions: dose 10-100 µM
HCT-116 [16] = assay: Binding affinity to NTR in human HCT-116 cells assessed as increase in fluorescence intensity at 10 to 100 uM incubated for 2 hrs by confocal fluorescence microscopic analysis; assay type: cell-based; conditions: dose 10-100 µM
[17] = Cytotoxicity against human HUVEC cells assessed as inhibition of cell growth incubated for 72 hrs under normoxic condition by CCK-8 assay; assay type: toxicity, cell-based
A549 [18] = assay: Cytotoxicity against human A549 cells assessed as inhibition of cell growth incubated for 72 hrs under hypoxic conditions by CCK-8 assay; assay type: functional, cell-based; conditions: A549, 72 h
HCT-116 [19] = assay: Induction of cell cycle arrest in human HCT-116 cells assessed as accumulation of cells at S phase at 0.2 uM measured after 24 hrs by flow cytometric analysis (reference value: 33.15 %); assay type: functional
HCT-116 [20] = assay: Induction of cell cycle arrest in human HCT-116 cells assessed as accumulation of cells at G1 phase at 0.2 uM measured after 24 hrs by flow cytometric analysis (reference value: 48.40 %); assay type: functional
[21] = Drug localization in nucleus of human HCT-116 cells at 25 uM incubated for 2 hrs by […] dye based confocal imaging analysis; assay type: ADME, subcellular; conditions: hct-116, 2 h
HCT-116 [22] = assay: Induction of cell cycle arrest in human HCT-116 cells assessed as accumulation of cells at G2/M phase at 0.04 uM measured after 24 hrs by flow cytometric analysis (reference value: 18.45 %); assay type: functional
A549 [23] = assay: Binding affinity to NTR in human A549 cells assessed as increase in fluorescence intensity at 25 uM incubated for 2 hrs under 2 to 10 % hypoxic condition by confocal fluorescence imaging based analysis; assay type: cell-based
[24] = Metabolic stability in ICR mouse liver microsomes assessed as intrinsic clearance; assay type: ADME, Microsome; conditions: read-out: CLH
HCT-116 [25] = assay: Cytotoxicity against human HCT-116 cells assessed as inhibition of cell growth incubated for 72 hrs under hypoxic conditions by CCK-8 assay; assay type: functional, cell-based; conditions: HCT-116, 72 h
HCT-116 [26] = assay: Induction of cell cycle arrest in human HCT-116 cells assessed as accumulation of cells at S phase at 1.0 uM measured after 24 hrs by flow cytometric analysis (reference value: 33.15 %); assay type: functional
[27] = Toxicity in male nude mouse assessed as change in body weight at 10 mg/kg, ip administered twice daily for 14 consecutive days; assay type: organism-based; conditions: in vivo
HCT-116 [28] = assay: Induction of cell cycle arrest in human HCT-116 cells assessed as accumulation of cells at G2/M phase at 1.0 uM measured after 24 hrs by flow cytometric analysis (reference value: 18.45 %); assay type: functional
[29] = Drug localization in Cell membrane of human HCT-116 cells at 25 uM incubated for 2 hrs by Dio- tracker green dye based confocal imaging analysis; assay type: ADME, cell membranes; conditions: hct-116, 2 h
HCT-116 [30] = assay: Binding affinity to NTR in human HCT-116 cells assessed as increase in fluorescence intensity at 25 uM incubated for 2 hrs under 2 to 10 % hypoxic condition by confocal fluorescence imaging based analysis; assay type: cell-based
A549 [31] = assay: Induction of cell cycle arrest in human A549 cells assessed as accumulation of cells at G2/M phase at 0.2 uM measured after 24 hrs by flow cytometric analysis (reference value: 3.81%); assay type: functional
HCT-116 [32] = assay: Induction of cell cycle arrest in human HCT-116 cells assessed as accumulation of cells at G2/M phase at 0.2 uM measured after 24 hrs by flow cytometric analysis (reference value: 18.45 %); assay type: functional
[33] = as §1, with “10” for “25”, “of 1 to 7 microg/ml NTR and” for “of”; conditions: isolated protein, pH 7.4, 2 h
[34] = Drug localization in lysosome of human A549 cells at 25 uM incubated for 2 hrs by Lyso-tracker red dye based confocal imaging analysis; assay type: ADME, subcellular; conditions: a549, 2 h
[35] = Metabolic stability in ICR mouse liver microsomes assessed as terminal half life; assay type: ADME, Microsome; conditions: read-out: beta t1/2
A549 [36] = assay: Induction of cell cycle arrest in human A549 cells assessed as accumulation of cells at G2/M phase at 1.0 uM measured after 24 hrs by flow cytometric analysis (reference value: 3.81%); assay type: functional
[37] = as §1, with “measuring fold increase in” for “measuring”; conditions: isolated protein, pH 7.4, 2 h
[38] = molecular target: T1, DNA topoisomerase 1 (Homo sapiens) (UniProt P11387); assay: Inhibition of topoisomerase 1 (unknown origin) […] activity using pBR322 DNA as substrate at 125 to 250 uM incubated for 15 mins by ethidium bromide staining based agarose gel electrophoresis; conditions: dose 125-250 µM
T1 sequence (whole entry): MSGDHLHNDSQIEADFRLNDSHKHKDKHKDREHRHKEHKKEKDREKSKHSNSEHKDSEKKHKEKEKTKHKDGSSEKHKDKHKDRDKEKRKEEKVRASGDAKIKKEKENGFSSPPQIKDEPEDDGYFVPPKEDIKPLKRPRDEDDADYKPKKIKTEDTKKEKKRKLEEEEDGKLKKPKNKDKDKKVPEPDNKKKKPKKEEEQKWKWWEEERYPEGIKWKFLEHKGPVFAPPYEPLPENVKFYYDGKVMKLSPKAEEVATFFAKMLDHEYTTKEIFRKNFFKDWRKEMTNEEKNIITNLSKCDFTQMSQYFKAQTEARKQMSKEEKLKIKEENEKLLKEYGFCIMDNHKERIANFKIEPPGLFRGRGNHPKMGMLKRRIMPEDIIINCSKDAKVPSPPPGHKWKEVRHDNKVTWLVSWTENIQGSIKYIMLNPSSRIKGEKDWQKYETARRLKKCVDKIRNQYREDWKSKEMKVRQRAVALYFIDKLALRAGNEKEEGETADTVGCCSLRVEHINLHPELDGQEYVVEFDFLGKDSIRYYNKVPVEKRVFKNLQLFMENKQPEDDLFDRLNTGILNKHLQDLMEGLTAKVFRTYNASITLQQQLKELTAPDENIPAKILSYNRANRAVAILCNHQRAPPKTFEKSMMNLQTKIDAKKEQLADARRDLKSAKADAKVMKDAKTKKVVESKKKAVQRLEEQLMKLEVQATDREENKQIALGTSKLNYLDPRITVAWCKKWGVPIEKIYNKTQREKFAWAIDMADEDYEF

HCT-116 [39] = assay: Induction of cell cycle arrest in human HCT-116 cells assessed as accumulation of cells at G1 phase at 1.0 uM measured after 24 hrs by flow cytometric analysis (reference value: 48.40 %); assay type: functional
Bacteroides fragilis = assay: Antibacterial activity against Bacteroides fragilis; assay type: functional
[40] = Drug uptake in male nude mouse tumor xenografted in human HCT-116 cells at 10 mg/kg, […] administered via tail vein and measured at 12 hrs post injection by fluorescence imaging analysis; assay type: ADME, organism-based, Neoplasm; conditions: in vivo
Fusobacterium nucleatum = assay: Antibacterial activity against Fusobacterium nucleatum; assay type: functional
HCT-116 [41] = assay: Antitumor activity against human HCT-116 cells xenografted in male nude mouse assessed as tumor growth inhibition at 0.5 mg/kg, ip administered twice daily for 14 consecutive days; assay type: functional; conditions: read-out: TGI
[42] = Toxicity in male nude mouse assessed as change in body weight at 0.5 mg/kg, ip administered twice daily for 14 consecutive days; assay type: organism-based; conditions: in vivo

Compound: CN1c2ccc(F)cc2C(=O)N2CCc3c([nH]c4ccc(OC(=O)/C=C/C(=O)OCc5cc6ccc(OCc7ccccc7)cc6oc5=O)cc34)C21 (stereo not drawn)
Drug metabolism [1]: metabolite_notdetected

Compound: CN1c2ccc(F)cc2C(=O)N2CCc3c([nH]c4ccc(O)cc34)C21 (stereo not drawn)
MIC50 (Fusobacterium nucleatum): > 64 µg/mL | IC50 at 72 h [17]: 44 nM | IC50 (A549 [18]): 15 nM | CLint scaled [24]: 555 mL/min/kg | IC50 (HCT-116 [25]): 15 nM | half-life [35]: 0.164 h

Compound: CC[C@@]1(O)C(=O)OCc2c1cc1n(c2=O)Cc2cc3c(CN(C)C)c(O)ccc3nc2-1 [TOPOTECAN]
inhibition in vivo at 0.5 mg/kg (HCT-116 [41]): 82.5% | Activity [42]: Toxic

Further lines, with some results ahead:

Drug metabolism [1]: metabolite_detected
Compound: CN1c2ccc(F)cc2C(=O)N2CCc3c([nH]c4ccc(OC(=O)OCc5cc6ccc(OCc7ccc([N+](=O)[O-])cc7)cc6oc5=O)cc34)C21 (stereo not drawn)

Drug uptake [2]: Active | Drug uptake [3]: Active | Drug uptake [5]: Active | Drug uptake [9]: Active | Drug metabolism [10]: metabolite_detected | Drug uptake [21]: Active | Drug metabolism [1]: metabolite_detected | CLint scaled [24]: 9.54 mL/min/kg | Drug uptake [29]: Active | Drug metabolism [33]: metabolite_detected | Drug uptake [34]: Active | half-life [35]: 9.53 h | fold change (FC) [37]: 14 | inhibition [38]: Weak_effect | MIC50 (Bacteroides fragilis): > 64 µg/mL | Drug uptake [40]: Active
Compound: CN1c2ccc(F)cc2C(=O)N2CCc3c([nH]c4ccc(OC(=O)/C=C/C(=O)OCc5cc6ccc(OCc7ccc([N+](=O)[O-])cc7)cc6oc5=O)cc34)C21 (stereo not drawn)
inhibition in vivo at 10 mg/kg (HCT-116 [4]): 76.1% | Activity (A549 [6]): 10.87% | Activity (A549 [7]): Active | IC50 (HCT-116 [8]): 145 nM | Activity (HCT-116 [11]): 32.22% | Activity (A549 [12]): 18.27% | IC50 (A549 [13]): 255 nM | Activity (HCT-116 [14]): 13.04% | Activity (HCT-116 [15]): 43.77% | Activity (HUVEC): Active; Weak Fluorescence Observed | Activity (HCT-116 [16]): Active; Stronger Fluorescence Intensity Observed | IC50 at 72 h [17]: 120 nM | IC50 (A549 [18]): 38 nM | Activity (HCT-116 [19]): 17.36% | Activity (HCT-116 [20]): 7.74% | Activity (HCT-116 [22]): 24.01% | Activity (A549 [23]): Active | IC50 (HCT-116 [25]): 71 nM | Activity (HCT-116 [26]): 2.78% | Activity [27]: Non-toxic | Activity (HCT-116 [28]): 96.66% | Activity (HCT-116 [30]): Active | Activity (A549 [31]): 47.03% | Activity (HCT-116 [32]): 74.9% | Activity (A549 [36]): 59.51% | Activity (HCT-116 [39]): 0.56%

Drug metabolism [1]: metabolite_detected
Compound: CN1c2ccc(F)cc2C(=O)N2CCc3c([nH]c4ccc(OC(=O)CCC(=O)OCc5cc6ccc(OCc7ccc([N+](=O)[O-])cc7)cc6oc5=O)cc34)C21 (stereo not drawn)

Reference: ChEMBL document CHEMBL6182882, “Evodiamine-Based Nitroreductase Responsive Theranostic Agents for Treatment of Colon Cancer” (J Med Chem, 2025)
